Patent publication US8618300B2, “Indolizine inhibitors of leukotriene production” (Boehringer Ingelheim International GmbH, priority 2008, dated 2013)

Biological target: T1, recombinant human FLAP protein (Homo sapiens, UniProt P20292)
T1 construct: made in house; host or cells: Sf9 insect cells (100,000 x g membrane pellet)
T1 sequence (P20292 1-161): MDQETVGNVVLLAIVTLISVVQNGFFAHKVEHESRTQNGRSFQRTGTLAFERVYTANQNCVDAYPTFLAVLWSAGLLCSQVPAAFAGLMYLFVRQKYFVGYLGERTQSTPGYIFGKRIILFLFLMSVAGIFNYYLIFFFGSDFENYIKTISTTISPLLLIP
Assay: FLAP binding assay, Scintillation Proximity Assay, displacement of [125I]L-691,831
Conditions: read-out: hFLAP binding IC50
Experimental: Compounds are assessed for the ability to bind to FLAP in a binding assay that measures compound-specific displacement of an iodinated (^1251) FLAP inhibitor via a Scintillation Proximity Assay format (adapted from S. Charleson et al., Mol. Pharmacol., 1992, 41, 873-879).
Cell pellets produced from sf9 insect cells expressing recombinant human FLAP protein are resuspended in buffer A [15 mM Tris-HCl (pH 7.5), 2 mM MgCl2, 0.3 mM EDTA, 1 mM PMSF]. The cells are lysed with a Dounce homogenizer and the material is centrifuged at 10,000×g for 10 minutes. The supernatant is then collected and centrifuged at 100,000×g for 60 minutes. To prepare membrane protein for an assay, an aliquot of the 100,000×g pellet is resuspended in 1 ml of buffer A, Dounce homogenized, and finally subjected to polytron mixing (30 seconds). Membrane protein (25 μl, 5 μg) is mixed with WGA SPA beads (Amersham) and stirred for 1 h. To an assay plate (Perkin Elmer FlexiPlate) is added 25 μl of test compound prepared in Binding buffer [100 mM Tris (pH 7.5), 140 mM NaCl, 5% glycerol, 2 mM EDTA, 0.5 mM TCEP, 0.05% Tween 20], 25 μl of [^125I]L-691,831 (an iodinated analog of MK-591, Charleson et al. Mol. Pharmacol., 41, 873-879, 1992) and finally 50 μl of the bead/protein mixture. (final concentrations: beads, 200 μg/well; protein, 5 μg/well; [^125I] probe, 0 08 nM/well (17 nCi/well). The plates are shaken for 2 h before reading on a Microbeta plate reader. Non-specific binding is determined by the addition of 10 μM cold L-691,831 compound.

Structure (SMILES) | IC50 [nM]
Cc1nc(COc2ccn3c(C(=O)c4ccc(Cl)cc4)c(CC(C)(C)C(=O)O)c(C(=O)C(C)(C)C)c3c2)no1 | 90
Cc1nc(COc2ccn3c(C(=O)c4ccccc4)c(CC(C)(C)C(=O)O)c(C(=O)C(C)(C)C)c3c2)cs1 [3-[1-(2,2-dimethylpropanoyl)-7-[(2-methyl-1,3-thiazol-4-yl)methoxy]-3-(phenylcarbonyl)indolizin-2-yl]-2,2-dimethylpropanoic acid] | 101
CC(C)(C)C(=O)c1c(CC(C)(C)C(=O)O)c(C(=O)c2ccc(Cl)cc2)c2ccc(OCc3ccccn3)cn12 [3-{1-[(4-chlorophenyl)carbonyl]-3-(2,2-dimethylpropanoyl)-6-(pyridin-2-ylmethoxy)indolizin-2-yl}-2,2-dimethylpropanoic acid] | 79
Cc1cccc(COc2ccn3c(C(=O)c4ccc(Cl)cc4)c(CC(C)(C)C(=O)O)c(C(=O)C(C)(C)C)c3c2)n1 [3-{3-[(4-chlorophenyl)carbonyl]-1-(2,2-dimethylpropanoyl)-7-[(6-methylpyridin-2-yl)methoxy]indolizin-2-yl}-2,2-dimethylpropanoic acid] | 17
COc1c(C)cnc(COc2ccn3c(C(=O)c4ccc(Cl)cc4)c(CC(C)(C)C(=O)O)c(C(=O)C(C)(C)C)c3c2)c1C [3-{3-[(4-chlorophenyl)carbonyl]-1-(2,2-dimethylpropanoyl)-7-[(4-methoxy-3,5-dimethylpyridin-2-yl)methoxy]indolizin-2-yl}-2,2-dimethylpropanoic acid] | 58
CC(C)(C)C(=O)c1c(CC(C)(C)C(=O)O)c(C(=O)c2ccc(Cl)cc2)c2ccc(OCc3nc4ccccc4s3)cn12 [3-[6-(1,3-benzothiazol-2-ylmethoxy)-1-[(4-chlorophenyl)carbonyl]-3-(2,2-dimethylpropanoyl)indolizin-2-yl]-2,2-dimethylpropanoic acid] | 9
COc1ccc(-c2ccc(C(=O)c3c(CC(C)(C)C(=O)O)c(C(=O)C(C)(C)C)c4cc(C(C)C)ccn34)cc2)cn1 | 232
CC(C)c1ccn2c(C(=O)N(C)c3ccc(Br)cc3)c(CC(C)(C)C(=O)O)c(C(=O)C(C)(C)C)c2c1 [3-{3-[(4-bromophenyl)(methyl)carbamoyl]-1-(2,2-dimethylpropanoyl)-7-(propan-2-yl)indolizin-2-yl}-2,2-dimethylpropanoic acid] | 156
COc1ccncc1-c1ccc(C(=O)c2c(CC(C)(C)C(=O)O)c(C(=O)C(C)(C)C)c3cc(OCc4ccccn4)ccn23)cc1 [3-[1-(2,2-dimethylpropanoyl)-3-{[4-(4-methoxypyridin-3-yl)phenyl]carbonyl}-7-(pyridin-2-ylmethoxy)indolizin-2-yl]-2,2-dimethylpropanoic acid] | 67
Cc1nc(COc2ccc3c(C(=O)c4ccc(Cl)cc4)c(CC(C)(C)C(=O)O)c(C(=O)C(C)(C)C)n3c2)cs1 [3-{1-[(4-chlorophenyl)carbonyl]-3-(2,2-dimethylpropanoyl)-6-[(2-methyl-1,3-thiazol-4-yl)methoxy]indolizin-2-yl}-2,2-dimethylpropanoic acid] | 38
CC(C)(C)C(=O)c1c(CC(C)(C)C(=O)O)c(C(=O)c2ccc(Cl)cc2)n2ccc(OCc3ccc4ccccc4n3)cc12 [3-{3-[(4-chlorophenyl)carbonyl]-1-(2,2-dimethylpropanoyl)-7-(quinolin-2-ylmethoxy)indolizin-2-yl}-2,2-dimethylpropanoic acid] | 8
Cc1nc(COc2ccn3c(C(=O)c4ccc(Cl)cc4)c(CC(C)(C)C(=O)O)c(C(=O)C(C)(C)C)c3c2)cs1 [3-{3-[(4-chlorophenyl)carbonyl]-1-(2,2-dimethylpropanoyl)-7-[(2-methyl-1,3-thiazol-4-yl)methoxy]indolizin-2-yl}-2,2-dimethylpropanoic acid] | 18
Cc1nc(COc2ccn3c(C(=O)c4ccc(Cl)c(Cl)c4)c(CC(C)(C)C(=O)O)c(C(=O)C(C)(C)C)c3c2)cs1 [3-{3-[(3,4-dichlorophenyl)carbonyl]-1-(2,2-dimethylpropanoyl)-7-[(2-methyl-1,3-thiazol-4-yl)methoxy]indolizin-2-yl}-2,2-dimethylpropanoic acid] | 111

More lines, in order of falling IC50, values ahead:

IC50 [nM] | Structure (SMILES)
8 | COc1cccc(COc2ccn3c(C(=O)c4ccc(Cl)cc4)c(CC(C)(C)C(=O)O)c(C(=O)C(C)(C)C)c3c2)n1 [3-{3-[(4-chlorophenyl)carbonyl]-1-(2,2-dimethylpropanoyl)-7-[(6-methoxypyridin-2-yl)methoxy]indolizin-2-yl}-2,2-dimethylpropanoic acid]
4 | Cc1nc(COc2ccc3c(C(=O)c4ccc(Cl)cc4)c(CC(C)(C)C(=O)NS(C)(=O)=O)c(C(=O)C(C)(C)C)n3c2)cs1 [3-{1-[(4-chlorophenyl)carbonyl]-3-(2,2-dimethylpropanoyl)-6-[(2-methyl-1,3-thiazol-4-yl)methoxy]indolizin-2-yl}-2,2-dimethyl-N-(methylsulfonyl)propanamide]
3 | COc1ccc(C(=O)c2c(CC(C)(C)C(=O)O)c(C(=O)C(C)(C)C)c3cc(OCc4nc(C)cs4)ccn23)cc1 [3-{1-(2,2-dimethylpropanoyl)-3-[(4-methoxyphenyl)carbonyl]-7-[(4-methyl-1,3-thiazol-2-yl)methoxy]indolizin-2-yl}-2,2-dimethylpropanoic acid]
3 | CCCC(Cc1c(C(=O)C(C)(C)C)c2cc(OCc3cccc(C)n3)ccn2c1C(=O)c1ccc(OC)cc1)C(=O)O (centres unmarked) [2-({1-(2,2-dimethylpropanoyl)-3-[(4-methoxyphenyl)carbonyl]-7-[(6-methylpyridin-2-yl)methoxy]indolizin-2-yl}methyl)pentanoic acid]
3 | CCCC(Cc1c(C(=O)C(C)(C)C)c2cc(OCc3cccc(C)n3)ccn2c1C(=O)c1ccc(Cl)c(C)c1)C(=O)O (centres unmarked) [2-({3-[(4-chloro-3-methylphenyl)carbonyl]-1-(2,2-dimethylpropanoyl)-7-[(6-methylpyridin-2-yl)methoxy]indolizin-2-yl}methyl)pentanoic acid]
3 | COc1ccc(C(=O)c2c(CC(C(=O)O)C(C)C)c(C(=O)C(C)(C)C)c3cc(OCc4cccc(C)n4)ccn23)cc1 (centres unmarked) [2-({1-(2,2-dimethylpropanoyl)-3-[(4-methoxyphenyl)carbonyl]-7-[(6-methylpyridin-2-yl)methoxy]indolizin-2-yl}methyl)-3-methylbutanoic acid]
2 | CCCC(Cc1c(C(=O)C(C)(C)C)c2cc(OCc3cccc(C)n3)ccn2c1C(=O)c1ccc(Cl)c(Cl)c1)C(=O)O (centres unmarked) [2-({3-[(3,4-dichlorophenyl)carbonyl]-1-(2,2-dimethylpropanoyl)-7-[(6-methylpyridin-2-yl)methoxy]indolizin-2-yl}methyl)pentanoic acid]
2 | Cc1nc(COc2ccn3c(C(=O)c4ccc(Cl)c(C)c4)c(CC(C)(C)C(=O)O)c(C(=O)C(C)(C)C)c3c2)cs1 [3-{3-[(4-chloro-3-methylphenyl)carbonyl]-1-(2,2-dimethylpropanoyl)-7-[(2-methyl-1,3-thiazol-4-yl)methoxy]indolizin-2-yl}-2,2-dimethylpropanoic acid]
2 | COc1ccc(C(=O)c2c(CC(C)(C)C(N)=O)c(C(=O)C(C)(C)C)c3cc(OCc4cccc(N)n4)ccn23)cc1 [3-{7-[(6-aminopyridin-2-yl)methoxy]-1-(2,2-dimethylpropanoyl)-3-(4-methoxybenzoyl)indolizin-2-yl}-2,2-dimethylpropanamide]
1 | Cc1csc(COc2ccn3c(C(=O)c4ccc(Cl)c(C)c4)c(CC(C)(C)C(=O)O)c(C(=O)C(C)(C)C)c3c2)n1 [3-{3-[(4-chloro-3-methylphenyl)carbonyl]-1-(2,2-dimethylpropanoyl)-7-[(4-methyl-1,3-thiazol-2-yl)methoxy]indolizin-2-yl}-2,2-dimethylpropanoic acid]
1 | COc1ccc(C(=O)c2c(CC(C)(C)C(=O)O)c(C(=O)C(C)(C)C)c3cc(OCc4nc5ccccc5s4)ccn23)cc1
1 | Cc1cccc(COc2ccn3c(C(=O)c4ccc(Cl)c(Cl)c4)c(CC(C)(C)C(=O)O)c(C(=O)C(C)(C)C)c3c2)n1 [3-{3-[(3,4-dichlorophenyl)carbonyl]-1-(2,2-dimethylpropanoyl)-7-[(6-methylpyridin-2-yl)methoxy]indolizin-2-yl}-2,2-dimethylpropanoic acid]
1 | Cc1csc(COc2ccn3c(C(=O)c4cccc(Cl)c4)c(CC(C)(C)C(=O)O)c(C(=O)C(C)(C)C)c3c2)n1 [3-{3-[(3-chlorophenyl)carbonyl]-1-(2,2-dimethylpropanoyl)-7-[(4-methyl-1,3-thiazol-2-yl)methoxy]indolizin-2-yl}-2,2-dimethylpropanoic acid]
